Results as given in ChEMBL document CHEMBL3991601, “The target landscape of clinical kinase drugs” (Science, 2017).
The source made the active and inactive calls. For most assays here, no stated cut-off is given here; in the data, actives have a measured Kd and inactives only a lower limit.

Assays:
[1] = target: T1, Ephrin type-B receptor 4 (Homo sapiens, UniProt P54760)
T1 sequence (P54760 whole entry): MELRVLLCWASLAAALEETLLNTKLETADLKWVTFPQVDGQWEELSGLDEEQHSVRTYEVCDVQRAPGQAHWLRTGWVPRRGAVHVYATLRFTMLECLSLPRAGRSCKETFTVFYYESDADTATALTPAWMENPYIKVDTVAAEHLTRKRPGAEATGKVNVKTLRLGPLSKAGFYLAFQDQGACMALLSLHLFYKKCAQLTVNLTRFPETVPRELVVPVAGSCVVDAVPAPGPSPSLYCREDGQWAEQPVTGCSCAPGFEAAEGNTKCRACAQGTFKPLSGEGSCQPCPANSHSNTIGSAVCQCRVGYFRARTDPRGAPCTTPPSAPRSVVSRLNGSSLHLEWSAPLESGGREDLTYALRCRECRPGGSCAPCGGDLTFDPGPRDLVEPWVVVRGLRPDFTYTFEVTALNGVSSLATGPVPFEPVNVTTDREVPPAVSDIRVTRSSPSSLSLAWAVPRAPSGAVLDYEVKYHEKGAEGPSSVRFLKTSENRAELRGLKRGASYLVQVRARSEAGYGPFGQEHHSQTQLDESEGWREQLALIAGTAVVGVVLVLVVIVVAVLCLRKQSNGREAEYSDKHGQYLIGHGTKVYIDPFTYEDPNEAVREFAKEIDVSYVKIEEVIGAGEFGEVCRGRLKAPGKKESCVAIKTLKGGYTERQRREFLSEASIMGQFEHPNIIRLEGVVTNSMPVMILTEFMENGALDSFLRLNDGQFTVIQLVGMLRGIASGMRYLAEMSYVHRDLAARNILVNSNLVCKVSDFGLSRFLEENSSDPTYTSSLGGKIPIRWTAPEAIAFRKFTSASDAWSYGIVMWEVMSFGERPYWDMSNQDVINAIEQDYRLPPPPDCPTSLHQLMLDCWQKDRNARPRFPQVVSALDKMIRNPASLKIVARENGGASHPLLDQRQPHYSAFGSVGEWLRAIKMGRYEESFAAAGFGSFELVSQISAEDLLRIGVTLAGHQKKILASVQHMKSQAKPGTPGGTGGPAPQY

[2] = target: T2, dCTP pyrophosphatase 1 (Homo sapiens, UniProt Q9H773)
T2 sequence (Q9H773 whole entry): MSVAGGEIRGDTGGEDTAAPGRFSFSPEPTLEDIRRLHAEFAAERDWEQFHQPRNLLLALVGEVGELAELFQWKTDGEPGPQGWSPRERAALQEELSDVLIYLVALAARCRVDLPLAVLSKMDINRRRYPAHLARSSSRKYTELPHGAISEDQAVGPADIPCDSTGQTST

[3] = target: T3, Calcium/calmodulin-dependent protein kinase type IV (Homo sapiens, UniProt Q16566)
T3 sequence (Q16566 whole entry): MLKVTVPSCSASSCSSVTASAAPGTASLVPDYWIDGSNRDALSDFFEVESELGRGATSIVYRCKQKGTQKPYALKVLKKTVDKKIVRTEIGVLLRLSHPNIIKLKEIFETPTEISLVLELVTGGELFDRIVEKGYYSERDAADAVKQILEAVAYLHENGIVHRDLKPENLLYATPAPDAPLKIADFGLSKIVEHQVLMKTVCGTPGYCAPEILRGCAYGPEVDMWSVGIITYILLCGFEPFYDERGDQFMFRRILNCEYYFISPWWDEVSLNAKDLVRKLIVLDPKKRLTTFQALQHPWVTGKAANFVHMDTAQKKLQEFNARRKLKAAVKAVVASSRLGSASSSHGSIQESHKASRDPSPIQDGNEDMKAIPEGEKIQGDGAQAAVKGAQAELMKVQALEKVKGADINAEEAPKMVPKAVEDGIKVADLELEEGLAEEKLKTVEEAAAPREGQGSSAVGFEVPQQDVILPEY

[4] = target: T4, Bifunctional phosphoribosylaminoimidazole carboxylase/phosphoribosylaminoimidazole succinocarboxamide synthetase (Homo sapiens, UniProt P22234)
T4 sequence (P22234 whole entry): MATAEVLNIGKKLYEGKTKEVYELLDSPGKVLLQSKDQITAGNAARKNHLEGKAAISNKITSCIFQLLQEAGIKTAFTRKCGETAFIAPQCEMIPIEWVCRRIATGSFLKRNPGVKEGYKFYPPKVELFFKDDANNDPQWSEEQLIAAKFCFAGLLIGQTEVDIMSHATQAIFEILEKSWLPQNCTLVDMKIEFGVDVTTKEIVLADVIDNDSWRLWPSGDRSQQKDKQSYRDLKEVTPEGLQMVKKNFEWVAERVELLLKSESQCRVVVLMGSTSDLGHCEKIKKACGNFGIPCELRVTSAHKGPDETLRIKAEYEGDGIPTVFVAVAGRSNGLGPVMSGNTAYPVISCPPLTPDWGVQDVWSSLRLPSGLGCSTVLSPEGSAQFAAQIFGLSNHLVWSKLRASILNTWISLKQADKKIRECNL

[5] = target: T5, General transcription and DNA repair factor IIH helicase subunit XPD (Homo sapiens, UniProt P18074); settings: read-out: Kd apparent; k-562, colo 205, sk-n-be(2) and mv-4-11
T5 sequence (P18074 whole entry): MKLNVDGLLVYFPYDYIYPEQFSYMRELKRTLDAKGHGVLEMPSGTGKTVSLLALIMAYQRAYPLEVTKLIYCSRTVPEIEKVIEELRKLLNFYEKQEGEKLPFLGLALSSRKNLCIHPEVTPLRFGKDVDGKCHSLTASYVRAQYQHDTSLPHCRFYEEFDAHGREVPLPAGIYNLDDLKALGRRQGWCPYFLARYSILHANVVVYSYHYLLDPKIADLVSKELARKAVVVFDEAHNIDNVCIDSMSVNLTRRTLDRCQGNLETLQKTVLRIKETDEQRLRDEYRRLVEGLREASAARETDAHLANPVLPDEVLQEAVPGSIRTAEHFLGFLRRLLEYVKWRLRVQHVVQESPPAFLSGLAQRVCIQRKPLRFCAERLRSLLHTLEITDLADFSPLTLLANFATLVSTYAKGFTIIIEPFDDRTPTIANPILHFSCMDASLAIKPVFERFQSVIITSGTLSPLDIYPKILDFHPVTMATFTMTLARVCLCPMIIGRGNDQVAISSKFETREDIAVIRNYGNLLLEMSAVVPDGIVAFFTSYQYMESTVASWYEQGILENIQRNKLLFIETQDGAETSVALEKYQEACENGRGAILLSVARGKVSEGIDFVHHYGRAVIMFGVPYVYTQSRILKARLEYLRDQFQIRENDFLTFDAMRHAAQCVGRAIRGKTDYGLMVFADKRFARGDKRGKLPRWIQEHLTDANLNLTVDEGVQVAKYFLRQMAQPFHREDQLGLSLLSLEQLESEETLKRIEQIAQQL

Compound	Kd [1]	Kd [2]	Kd [3]	Kd [4]	Kd [5]
COc1cc2nccc(Oc3ccc(NC(=O)C4(C(=O)Nc5ccc(F)cc5)CC4)cc3)c2cc1OC [CABOZANTINIB]	> 30 µM (inactive)	> 30 µM (inactive)	> 30 µM (inactive)	> 30 µM (inactive)	> 30 µM (inactive)
O=C(Nc1ccc(OC(F)(F)F)cc1)c1sccc1NCc1ccnc2ccccc12 [OSI-930]	> 30 µM (inactive)	> 30 µM (inactive)	> 30 µM (inactive)	> 30 µM (inactive)	> 30 µM (inactive)
Cc1cc(Nc2nc(N[C@@H](C)c3ncc(F)cn3)ncc2Cl)n[nH]1 [AZD-1480]	> 30 µM (inactive)	> 30 µM (inactive)	> 30 µM (inactive)	> 30 µM (inactive)	> 30 µM (inactive)
COc1cccc(Nc2ncnn3ccc(CN4CC[C@@H](N)[C@H](O)C4)c23)c1 [BMS-690514]	> 30 µM (inactive)	> 30 µM (inactive)	> 30 µM (inactive)	> 30 µM (inactive)	–
COc1cc2ncnc3c2cc1OCCCCCN(C)Cc1ccc(Br)cc1N3 [JNJ-26483327]	> 30 µM (inactive)	> 30 µM (inactive)	> 30 µM (inactive)	> 30 µM (inactive)	> 30 µM (inactive)
CCc1cc2c(cc1N1CCC(N3CCOCC3)CC1)C(C)(C)c1[nH]c3cc(C#N)ccc3c1C2=O [ALECTINIB]	> 30 µM (inactive)	> 30 µM (inactive)	> 30 µM (inactive)	> 30 µM (inactive)	> 30 µM (inactive)
CN(c1ncccc1CNc1nc(Nc2ccc3c(c2)CC(=O)N3)ncc1C(F)(F)F)S(C)(=O)=O [PF-00562271]	> 30 µM (inactive)	> 30 µM (inactive)	> 30 µM (inactive)	> 30 µM (inactive)	2.64 µM (active)
CNC(=O)c1cccc(-c2ccc3c(N4CCOC[C@@H]4C)nc(N4CCOC[C@@H]4C)nc3n2)c1 [VISTUSERTIB]	> 30 µM (inactive)	> 30 µM (inactive)	> 30 µM (inactive)	> 30 µM (inactive)	> 30 µM (inactive)
C=CCn1c(=O)c2cnc(Nc3ccc(N4CCN(C)CC4)cc3)nc2n1-c1cccc(C(C)(C)O)n1 [ADAVOSERTIB]	> 30 µM (inactive)	> 30 µM (inactive)	> 30 µM (inactive)	> 30 µM (inactive)	> 30 µM (inactive)
CNC(=O)c1cc(COc2nnc(Nc3ccc(Cl)cc3)c3ccoc23)ccn1 [TELATINIB]	> 30 µM (inactive)	> 30 µM (inactive)	> 30 µM (inactive)	> 30 µM (inactive)	> 30 µM (inactive)
COc1cc2c(Oc3ccc4[nH]c(C)cc4c3F)ncnc2cc1OCCCN1CCCC1 [CEDIRANIB]	–	> 30 µM (inactive)	–	> 30 µM (inactive)	–
Cn1c(=O)c(F)c(Nc2ccc(I)cc2F)c2c(=O)n(C[C@@H](O)CO)cnc21 [TAK-733]	> 30 µM (inactive)	> 30 µM (inactive)	> 30 µM (inactive)	> 30 µM (inactive)	> 30 µM (inactive)
CC[C@@](C)(Nc1ccnc(-c2c[nH]c3ncccc23)n1)C(=O)NCC(F)(F)F [DECERNOTINIB]	> 30 µM (inactive)	> 30 µM (inactive)	> 30 µM (inactive)	> 30 µM (inactive)	> 30 µM (inactive)
N#CCNC(=O)c1ccc(-c2ccnc(Nc3ccc(N4CCOCC4)cc3)n2)cc1 [MOMELOTINIB]	> 30 µM (inactive)	> 30 µM (inactive)	> 30 µM (inactive)	> 30 µM (inactive)	–
CC(C)(O)CC(=O)NCCn1ccc2ncnc(Nc3ccc(Oc4cccc(C(F)(F)F)c4)c(Cl)c3)c21 [TAK-285]	> 30 µM (inactive)	> 30 µM (inactive)	> 30 µM (inactive)	> 30 µM (inactive)	–
CC1(C)CNc2cc(NC(=O)c3cccnc3NCc3ccncc3)ccc21 [MOTESANIB]	–	> 30 µM (inactive)	–	> 30 µM (inactive)	> 30 µM (inactive)
CCOc1ccn(-c2ccc(F)cc2)c(=O)c1C(=O)Nc1ccc(Oc2ccnc(N)c2Cl)c(F)c1 [BMS-777607]	> 30 µM (inactive)	> 30 µM (inactive)	> 30 µM (inactive)	> 30 µM (inactive)	–
CN(C)C/C=C/C(=O)Nc1cc2c(Nc3ccc(F)c(Cl)c3)ncnc2cc1O[C@H]1CCOC1 [AFATINIB]	–	> 30 µM (inactive)	–	> 30 µM (inactive)	> 30 µM (inactive)
S=C(NCc1ccc2c(c1)OCO2)N1CCN(c2ncnc3c2oc2ccccc23)CC1 [AMUVATINIB]	> 30 µM (inactive)	> 30 µM (inactive)	–	> 30 µM (inactive)	> 30 µM (inactive)
Cn1cnc2c(F)c(Nc3ccc(Br)cc3Cl)c(C(=O)NOCCO)cc21 [SELUMETINIB]	–	> 30 µM (inactive)	–	> 30 µM (inactive)	> 30 µM (inactive)
C=CC(=O)Nc1cc(Nc2nccc(-c3cn(C)c4ccccc34)n2)c(OC)cc1N(C)CCN(C)C [OSIMERTINIB]	> 30 µM (inactive)	> 30 µM (inactive)	> 30 µM (inactive)	> 30 µM (inactive)	–
FC(F)(F)c1ccc(CNc2ccc(Cc3c[nH]c4ncc(Cl)cc34)cn2)cn1 [PEXIDARTINIB]	> 30 µM (inactive)	> 30 µM (inactive)	> 30 µM (inactive)	> 30 µM (inactive)	–
COc1cc2c(N3CCN(C(=O)Nc4ccc(OC(C)C)cc4)CC3)ncnc2cc1OCCCN1CCCCC1 [TANDUTINIB]	–	> 30 µM (inactive)	–	> 30 µM (inactive)	> 30 µM (inactive)
C[C@@]1(C(=O)Nc2ccc(F)nc2)CCCN1c1nc(Nc2cc(C3CC3)n[nH]2)c2cccn2n1 [BMS-754807]	–	> 30 µM (inactive)	–	> 30 µM (inactive)	> 30 µM (inactive)
